Assay results published in PubChem BioAssay (NCI).
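The compound was tested at five concentrations on cells cultured in 96-well plates, with a 48-hour exposure period. At the TGI there is no net growth.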

What was measured:
Test in all cases: NCI tumour cell line growth inhibition, 48 h
[1] = system: 786-0 renal
[2] = system: A498 renal
[3] = system: A549 NSCLC
[4] = system: ACHN renal
[5] = system: CAKI-1 renal
[6] = system: CCRF-CEM leukemia
[7] = system: COLO 205 colon
[8] = system: DLD-1 colon
[9] = system: DMS 114 small cell lung
[10] = system: EKVX NSCLC
[11] = system: HCC-2998 colon
[12] = system: HCT-15 colon
[13] = system: HOP-62 NSCLC
[14] = system: HT29 colon
[15] = system: IGROV1 ovarian
[16] = system: K-562 leukemia
[17] = system: KM12 colon
[18] = system: KM20L2 colon
[19] = system: LXFL 529 NSCLC
[20] = system: M14 melanoma
[21] = system: M19-MEL melanoma
[22] = system: MALME-3M melanoma
[23] = system: MOLT-4 leukemia
[24] = system: NCI-H23 lung
[25] = system: NCI-H460 lung
[26] = system: NCI-H522 lung
[27] = system: OVCAR-3 ovarian
[28] = system: OVCAR-4 ovarian
[29] = system: OVCAR-5 ovarian
[30] = system: OVCAR-8 ovarian
[31] = system: RPMI-8226 leukemia
[32] = system: SF-268 CNS
[33] = system: SF-295 CNS
[34] = system: SK-MEL-2 melanoma
[35] = system: SK-MEL-28 melanoma
[36] = system: SK-MEL-5 melanoma
[37] = system: SK-OV-3 ovarian
[38] = system: SN12C renal
[39] = system: SNB-19 CNS
[40] = system: SNB-78 CNS
[41] = system: SW-620 colon
[42] = system: TK-10 renal
[43] = system: U251 CNS
[44] = system: UACC-257 melanoma
[45] = system: UACC-62 melanoma
[46] = system: UO-31 renal
[47] = system: XF 498 CNS
[48] = system: HCT-116 colon
[49] = system: HL-60(TB) leukemia
[50] = system: HOP-18 NSCLC
[51] = system: LOX IMVI melanoma
[52] = system: NCI-H226 lung
[53] = system: RXF 393 renal
[54] = system: SNB-75 CNS
[55] = system: SR leukemia
[56] = system: DMS 273 small cell lung
[57] = system: SF-539 CNS
[58] = system: HOP-92 NSCLC

COc1ccc(/C=C2\Cc3ccccc3C2=O)cc1OC
TGI [1]: > 100 µM | TGI [2]: > 100 µM | TGI [3]: > 100 µM | TGI [4]: > 100 µM | TGI [5]: > 100 µM | TGI [6]: > 100 µM | TGI [7]: > 100 µM | TGI [8]: > 100 µM | TGI [9]: > 100 µM | TGI [10]: > 100 µM | TGI [11]: > 100 µM | TGI [12]: > 100 µM | TGI [13]: > 100 µM | TGI [14]: > 100 µM | TGI [15]: > 100 µM | TGI [16]: > 100 µM | TGI [17]: > 100 µM | TGI [18]: > 100 µM | TGI [19]: > 100 µM | TGI [20]: > 100 µM | TGI [21]: > 100 µM | TGI [22]: > 100 µM | TGI [23]: > 100 µM | TGI [24]: > 100 µM | TGI [25]: > 100 µM | TGI [26]: > 100 µM | TGI [27]: > 100 µM | TGI [28]: > 100 µM | TGI [29]: > 100 µM | TGI [30]: > 100 µM | TGI [31]: > 100 µM | TGI [32]: > 100 µM | TGI [33]: > 100 µM | TGI [34]: > 100 µM | TGI [35]: > 100 µM | TGI [36]: > 100 µM | TGI [37]: > 100 µM | TGI [38]: > 100 µM | TGI [39]: > 100 µM | TGI [40]: > 100 µM | TGI [41]: > 100 µM | TGI [42]: > 100 µM | TGI [43]: > 100 µM | TGI [44]: > 100 µM | TGI [45]: > 100 µM | TGI [46]: > 100 µM | TGI [47]: > 100 µM

COc1cccc(NC(=O)CSc2nnc(-c3ccc(N=Cc4ccc(Cl)cc4)cc3)o2)c1
TGI [1]: 57.5 µM | TGI [3]: 69.6 µM | TGI [4]: 30.3 µM | TGI [6]: > 100 µM | TGI [7]: 41.4 µM | TGI [9]: 46.9 µM | TGI [10]: > 100 µM | TGI [48]: 36.3 µM | TGI [12]: 33.8 µM | TGI [49]: 87.8 µM | TGI [50]: > 100 µM | TGI [13]: > 100 µM | TGI [14]: 29.8 µM | TGI [16]: > 100 µM | TGI [17]: 31.3 µM | TGI [18]: 30.6 µM | TGI [51]: 37.7 µM | TGI [19]: 50.2 µM | TGI [20]: 47 µM | TGI [21]: 60.8 µM | TGI [22]: 39.3 µM | TGI [23]: 93.3 µM | TGI [52]: 43.4 µM | TGI [24]: 41.1 µM | TGI [25]: 60.6 µM | TGI [26]: 32.9 µM | TGI [28]: > 100 µM | TGI [30]: 58.4 µM | TGI [31]: 65.1 µM | TGI [53]: 34 µM | TGI [32]: 46.3 µM | TGI [33]: 43.5 µM | TGI [34]: 39.8 µM | TGI [35]: 37.5 µM | TGI [36]: 34.6 µM | TGI [37]: > 100 µM | TGI [38]: 43 µM | TGI [39]: 53.2 µM | TGI [54]: 66.3 µM | TGI [40]: > 100 µM | TGI [55]: > 100 µM | TGI [41]: 37.9 µM | TGI [42]: 74.3 µM | TGI [43]: 30.8 µM | TGI [45]: 35.1 µM | TGI [46]: 32.7 µM | TGI [47]: 37.7 µM

CC(=O)NS(=O)(=O)c1ccc(NC(=O)COC(=O)c2cccc3c(=O)c4ccccc4[nH]c23)cc1
TGI [1]: > 100 µM | TGI [3]: > 100 µM | TGI [4]: > 100 µM | TGI [6]: > 100 µM | TGI [7]: > 100 µM | TGI [9]: > 100 µM | TGI [56]: > 100 µM | TGI [10]: > 100 µM | TGI [48]: > 100 µM | TGI [12]: > 100 µM | TGI [49]: > 100 µM | TGI [50]: > 100 µM | TGI [13]: > 100 µM | TGI [14]: > 100 µM | TGI [15]: > 100 µM | TGI [16]: > 100 µM | TGI [17]: > 100 µM | TGI [51]: > 100 µM | TGI [20]: > 100 µM | TGI [21]: > 100 µM | TGI [22]: > 100 µM | TGI [23]: > 100 µM | TGI [52]: > 100 µM | TGI [24]: > 100 µM | TGI [25]: > 100 µM | TGI [26]: > 100 µM | TGI [27]: > 100 µM | TGI [30]: > 100 µM | TGI [31]: > 100 µM | TGI [53]: > 100 µM | TGI [33]: > 100 µM | TGI [57]: > 100 µM | TGI [34]: > 100 µM | TGI [35]: > 100 µM | TGI [36]: > 100 µM | TGI [37]: > 100 µM | TGI [38]: > 100 µM | TGI [39]: > 100 µM | TGI [54]: > 100 µM | TGI [41]: > 100 µM | TGI [42]: > 100 µM | TGI [43]: > 100 µM | TGI [44]: > 100 µM | TGI [45]: > 100 µM | TGI [46]: > 100 µM | TGI [47]: > 100 µM

O=C(c1cc(O)ccc1O)c1ccccc1C(Cl)(Cl)Cl
TGI [1]: > 100 µM | TGI [2]: > 100 µM | TGI [3]: > 100 µM | TGI [4]: > 100 µM | TGI [5]: > 100 µM | TGI [6]: > 100 µM | TGI [7]: > 100 µM | TGI [9]: > 100 µM | TGI [56]: > 100 µM | TGI [10]: > 100 µM | TGI [11]: > 100 µM | TGI [48]: > 100 µM | TGI [12]: > 100 µM | TGI [49]: 97.3 µM | TGI [50]: > 100 µM | TGI [13]: > 100 µM | TGI [58]: > 100 µM | TGI [14]: > 100 µM | TGI [15]: > 100 µM | TGI [16]: > 100 µM | TGI [17]: > 100 µM | TGI [18]: > 100 µM | TGI [19]: > 100 µM | TGI [20]: > 100 µM | TGI [21]: > 100 µM | TGI [22]: > 100 µM | TGI [23]: > 100 µM | TGI [52]: > 100 µM | TGI [24]: > 100 µM | TGI [25]: > 100 µM | TGI [26]: > 100 µM | TGI [27]: > 100 µM | TGI [28]: > 100 µM | TGI [29]: > 100 µM | TGI [30]: > 100 µM | TGI [31]: > 100 µM | TGI [53]: > 100 µM | TGI [32]: > 100 µM | TGI [33]: > 100 µM | TGI [57]: > 100 µM | TGI [34]: > 100 µM | TGI [36]: > 100 µM | TGI [37]: > 100 µM | TGI [38]: > 100 µM | TGI [39]: > 100 µM | TGI [54]: > 100 µM | TGI [40]: > 100 µM | TGI [55]: > 100 µM | TGI [41]: > 100 µM | TGI [42]: > 100 µM | TGI [43]: > 100 µM | TGI [44]: > 100 µM | TGI [45]: > 100 µM | TGI [46]: > 100 µM | TGI [47]: 84.2 µM
